Results taken from paper PMC4805166, “Synthetic Cyclolipopeptides Selective against Microbial, Plant and Animal Cell Targets by Incorporation of D-Amino Acids or Histidine” (PLoS ONE, 2016).
Values joined by “and” are separate entries in the source; they are usually repeats but may differ in a detail not shown here. Equal values may be shown once. Read-outs that look alike come from different tables or passages of the source. Where a SMILES comes first, the peptide text is derived from it. Side-chain parts run from the residue outwards. [ ]: non-standard residue; d: D form. The star is where a group is joined. Palmitoyl = CCCCCCCCCCCCCCCC(=O)*; Lauroyl = CCCCCCCCCCCC(=O)*; Octanoyl = CCCCCCCC(=O)*; X1 = O=C(CCCCCCCCCCCO)*; Hexanoyl = CCCCCC(=O)*; Pentanoyl = CCCCC(=O)*; Butyryl = CCCC(=O)*

How the values were obtained:
[1] = system: Erwinia amylovora PMV6076; experiment: MIC, in vitro growth inhibition; assay type: cell-based; details: TSB, 25°C, 48 h, OD 600 nm; tested at 3.1, 6.2, 12.5, 25, 50 μM; three replicates, experiment repeated twice; MIC = lowest concentration with no growth
Procedure: (§1) The following plant pathogenic bacterial strains were used: Erwinia amylovora PMV6076 (Institut National de la Recherche Agronomique, Angers, France), Pseudomonas syringae pv. syringae EPS94 (Institut de Tecnologia Agroalimentària, Universitat de Girona, Spain) and Xanthomonas axonopodis pv. vesicatoria 2133–2 (Instituto Valenciano de Investigaciones Agrarias, Valencia, Spain). All bacteria were stored in Luria Bertani (LB) broth supplemented with glycerol (20%) and maintained at -80°C. Bacteria were scrapped from LB agar after growing for 24–48 h at 25°C. The cell material was suspended in sterile water to obtain a suspension of 10^8 CFU mL^-1.
(§2) Lyophilized peptides were solubilized in sterile Milli-Q water to a final concentration of 1 mM and filter sterilized through a 0.22-μm pore filter. For minimum inhibitory concentration (MIC) assessment, dilutions of the compounds were made to obtain a stock concentration of […]. For antibacterial activity twenty microlitres of each dilution were mixed in a microtiter plate well with 20 μL of the corresponding suspension of the bacterial indicator, 160 μL of Trypticase Soy Broth (TSB) (BioMèrieux, France) to a total volume of 200 μL. For antifungal activity 20 μL of each stock solution were mixed in a microtiter plate well with 80 μL of the corresponding suspension of the fungal pathogen and 100 μL of double concentrated PDB to a total volume of 200 μL containing 0.003% w/v of choramphenicol.
(§3) Three replicates for each strain, compound and concentration were used. Microbial growth was determined by optical density measurement at 600 nm (Bioscreen C, Labsystem, Helsinki, Finland). For antibacterial activity microplates were incubated at 25°C with 20 sec shaking before hourly absorbance measurement for 48 h. For antifungal activity microplates were incubated at 20°C with 1 min shaking before absorbance measurement that were done every two hours during seven days. The experiment was repeated twice. The MIC was taken as the lowest compound concentration with no growth at the end of the experiment.

[2] = system: erythrocyte suspensions of horse blood; details: horse erythrocytes 5% vol/vol, TRIS buffer pH 7.2, 1 h at 37°C, absorbance 540 nm, relative to melittin 100 μM, ± confidence interval (α = 0.05); for Hemolysis (%) 150 µM: 150 µM peptide; for Hemolysis (%) 250 µM: 250 µM peptide;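 as to all read-outs here: Read-out is hemoglobin release into the supernatant, with a buffer-only blank subtracted as the 0% baseline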
[3] = system: Xanthomonas axonopodis pv. vesicatoria 2133–2; assay type: cell-based; details: TSB, 25°C, 48 h, OD 600 nm; tested at 3.1, 6.2, 12.5, 25, 50 μM; three replicates, experiment repeated twice; MIC = lowest concentration with no growth
Procedure: as §1, §2, §3

[4] = system: Pseudomonas syringae pv. syringae EPS94; assay type: cell-based; details: 48 h
Procedure: as §1, §2, §3

[5] = system: Fusarium oxysporum f. sp. lycopersici FOL 3 race 2; experiment: MIC, antifungal growth inhibition; assay type: cell-based
Procedure: Fusarium oxysporum f. sp. lycopersici FOL 3 race 2 (ATCC 201829, American Type Culture Collection) was used as fungal pathogen. The strain was cultured on potato dextrose agar (PDA) plates (Difco) and microconidia were obtained after growth at 25°C. The concentration of conidia was determined using a hemacytometer and adjusted to 10^4 conidia mL^-1.
as §2, §3

[6] = PDB with 0.003% chloramphenicol, 20°C, seven days, OD 600 nm, tested at 3.1, 6.2, 12.5, 25, 50 μM, three replicates, repeated twice

Structure (SMILES) | MIC Ea [1] | Hemolysis (%) 150 µM [2] | Hemolysis (%) 250 µM [2] | MIC Xav [3] | MIC Pss [4] | MIC Fo [5, 6] | MIC Fo [5]
CCCCCC(=O)NCCCC[C@@H]1NC(=O)[C@H](CCCCN)NC(=O)[C@H](CCC(N)=O)NC(=O)[C@H](CC(C)C)NC(=O)[C@H](CCCCN)NC(=O)[C@H](CCCCN)NC(=O)[C@H](Cc2c[nH]cn2)NC(=O)[C@H](CCCCN)NC(=O)[C@H](CCCCN)NC(=O)[C@H](CC(C)C)NC1=O [BPC682] (cyclo(HKKLQKK(Hexanoyl)LKK)) | 25 to 50 µM | 20 ± 3% | 27 ± 1% | 12.5 to 25 µM | 12.5 to 25 µM | 3.1 to 6.2 µM | –
CCCCCC(=O)NCCCC[C@H]1NC(=O)[C@H](CCCCN)NC(=O)[C@H](CCC(N)=O)NC(=O)[C@H](CC(C)C)NC(=O)[C@H](CCCCN)NC(=O)[C@H](CCCCN)NC(=O)[C@H](Cc2ccccc2)NC(=O)[C@H](CCCCN)NC(=O)[C@H](CCCCN)NC(=O)[C@H](CC(C)C)NC1=O [BPC678] (cyclo(FKKLQK[dK](Hexanoyl)LKK)) | 25 to 50 µM | 68 ± 3% | 73 ± 4% | 6.2 to 12.5 µM | 12.5 to 25 µM | 3.1 to 6.2 µM | –
CCCC(=O)N[C@@H](CCCCN)C(=O)N[C@@H](CC(C)C)C(=O)NCCCC[C@H]1NC(=O)[C@H](CCCCN)NC(=O)[C@H](CC(C)C)NC(=O)[C@H](CCCCN)NC(=O)[C@H](CCCCN)NC(=O)[C@H](CCC(N)=O)NC(=O)[C@H](CC(C)C)NC(=O)[C@H](CCCCN)NC(=O)[C@H](CCCCN)NC(=O)[C@H](Cc2ccccc2)NC1=O [BPC724, c(KKLKk(LK-CO-C3H7)FKKLQ)] (cyclo(FKKLQKKLK[dK]([Leu-Lys-Butyryl]))) | 25 to 50 µM | 3 ± 2% | 3 ± 0.5% | 6.2 to 12.5 µM | 12.5 to 25 µM | <3.1 µM | –
CCCCCCCCCCCC(=O)NCCCC[C@@H]1NC(=O)[C@H](CCCCN)NC(=O)[C@H](CC(C)C)NC(=O)[C@H](CCCCN)NC(=O)[C@H](CCCCN)NC(=O)[C@H](CCC(N)=O)NC(=O)[C@H](CC(C)C)NC(=O)[C@H](CCCCN)NC(=O)[C@H](CCCCN)NC(=O)[C@H](Cc2ccccc2)NC1=O [BPC530, c(KKLKK(CO-C11H23)FKKLQ)] (cyclo(FKKLQKKLKK(Lauroyl))) | 12.5 to 25 µM | 89 ± 7% | 91 ± 9% | 6.2 to 12.5 µM | 12.5 to 25 µM | 6.2 to 12.5 µM | –
CCCCCCCCCCCCCCCC(=O)NCCCC[C@@H]1NC(=O)[C@H](CCCCN)NC(=O)[C@H](CC(C)C)NC(=O)[C@H](CCCCN)NC(=O)[C@H](CCCCN)NC(=O)[C@H](CCC(N)=O)NC(=O)[C@H](CC(C)C)NC(=O)[C@H](CCCCN)NC(=O)[C@H](CCCCN)NC(=O)[C@H](Cc2ccccc2)NC1=O [BPC502, c(KKLKK(CO-C15H31)FKKLQ)] (cyclo(FKKLQKKLKK(Palmitoyl))) | >50 µM | 78 ± 1% | 99 ± 2% | >50 µM | >50 µM | >50 µM | –
CCCC(=O)NCCCC[C@H]1NC(=O)[C@H](CCCCN)NC(=O)[C@H](CCC(N)=O)NC(=O)[C@H](CC(C)C)NC(=O)[C@H](CCCCN)NC(=O)[C@H](CCCCN)NC(=O)[C@H](Cc2ccccc2)NC(=O)[C@H](CCCCN)NC(=O)[C@H](CCCCN)NC(=O)[C@H](CC(C)C)NC1=O [BPC704] (cyclo(FKKLQK[dK](Butyryl)LKK)) | 25 to 50 µM | 9 ± 1% | 16 ± 2% | 6.2 to 12.5 µM | 6.2 to 12.5 µM | 12.5 to 25 µM | –
CCCCCC(=O)N[C@@H](CCCCN)C(=O)N[C@@H](CC(C)C)C(=O)NCCCC[C@H]1NC(=O)[C@H](CCCCN)NC(=O)[C@H](CC(C)C)NC(=O)[C@H](CCCCN)NC(=O)[C@H](CCCCN)NC(=O)[C@H](CCC(N)=O)NC(=O)[C@H](CC(C)C)NC(=O)[C@H](CCCCN)NC(=O)[C@H](CCCCN)NC(=O)[C@H](Cc2ccccc2)NC1=O [BPC672, c(KKLKk(LK-CO-nC5H11)FKKLQ)] (cyclo(FKKLQKKLK[dK]([Leu-Lys-Hexanoyl]))) | 25 to 50 µM | 33 ± 2% | 33 ± 2% | 3.1 to 12.5 µM and 6.2 to 12.5 µM | 6.2 to 12.5 µM | 3.1 to 6.2 µM | 3.1 to 6.2 µM
CCCCCC(=O)NCCCC[C@@H]1NC(=O)[C@H](Cc2ccccc2)NC(=O)[C@H](CCCCN)NC(=O)[C@H](CCCCN)NC(=O)[C@H](CC(C)C)NC(=O)[C@H](CCCCN)NC(=O)[C@H](CCCCN)NC(=O)[C@H](CCC(N)=O)NC(=O)[C@H](CC(C)C)NC(=O)[C@H](CCCCN)NC1=O [BPC584, c(KKLKKFK(CO-nC5H11)KLQ)] (cyclo(FK(Hexanoyl)KLQKKLKK)) | 25 to 50 µM | 72 ± 5% | 97 ± 12% | 6.2 to 12.5 µM | 12.5 to 25 µM | 25 to 50 µM | –
CCCCC(=O)NCCCC[C@@H]1NC(=O)[C@H](CCCCN)NC(=O)[C@H](CC(C)C)NC(=O)[C@H](CCCCN)NC(=O)[C@H](CCCCN)NC(=O)[C@H](CCC(N)=O)NC(=O)[C@H](CC(C)C)NC(=O)[C@H](CCCCN)NC(=O)[C@H](CCCCN)NC(=O)[C@H](Cc2ccccc2)NC1=O [BPC526, c(KKLKK(CO-C4H9)FKKLQ)] (cyclo(FKKLQKKLKK(Pentanoyl))) | 12.5 to 25 µM | 62 ± 2% | 78 ± 3% | <3.1 µM | 12.5 to 25 µM | 6.2 to 12.5 µM | –
CC(C)C[C@@H]1NC(=O)[C@H](CCCCN)NC(=O)[C@H](CCCCN)NC(=O)[C@H](CCC(N)=O)NC(=O)[C@H](CC(C)C)NC(=O)[C@H](CCCCN)NC(=O)[C@H](CCCCN)NC(=O)[C@H](Cc2ccccc2)NC(=O)[C@H](CCCCNC(=O)CCCCCCCCCCCO)NC(=O)[C@H](CCCCN)NC1=O [BPC524, c(KKLKK(CO-C11H22OH)FKKLQ)] (cyclo(FKKLQKKLKK(X1))) | 25 to 50 µM | 100 ± 8% | 100 ± 6% | 6.2 to 12.5 µM | 12.5 to 25 µM | 12.5 to 25 µM | –
CCCCCCCC(=O)NCCCC[C@H]1NC(=O)[C@H](CCCCN)NC(=O)[C@H](CC(C)C)NC(=O)[C@H](CCCCN)NC(=O)[C@H](CCCCN)NC(=O)[C@H](CCC(N)=O)NC(=O)[C@H](CC(C)C)NC(=O)[C@H](CCCCN)NC(=O)[C@H](CCCCN)NC(=O)[C@H](Cc2ccccc2)NC1=O [BPC666, c(KKLKk(CO-C7H15)FKKLQ)] (cyclo(FKKLQKKLK[dK](Octanoyl))) | 25 to 50 µM | 61 ± 2% | 73 ± 3% | 12.5 to 25 µM | 12.5 to 25 µM | 6.2 to 12.5 µM | –
